# Experimental data from patent EP4032896A1, “THIAZOLOPYRIMIDONES AS INHIBITORS OF DDR1/2 AND THERAPEUTIC USES THEREOF” (Fundación del Sector Público Estatal Centro Nacional de …, priority 2021, dated 2022).
# Experiments:
# DDR1 [1] = target: T1, DDR1 (Homo sapiens, UniProt Q08345); test: LanthaScreen Eu-Kinase Binding Assay (TR-FRET tracer displacement), DDR1; settings: catalytic domain GST Tag DDR1; Kinase Tracer 178
# T1 construct: The enzymes were purchased as a catalytic domain GST Tag DDR1(#PR6913A); purchased ThermoFisher PR6913A
# T1 sequence (Q08345 610-905 limits assumed): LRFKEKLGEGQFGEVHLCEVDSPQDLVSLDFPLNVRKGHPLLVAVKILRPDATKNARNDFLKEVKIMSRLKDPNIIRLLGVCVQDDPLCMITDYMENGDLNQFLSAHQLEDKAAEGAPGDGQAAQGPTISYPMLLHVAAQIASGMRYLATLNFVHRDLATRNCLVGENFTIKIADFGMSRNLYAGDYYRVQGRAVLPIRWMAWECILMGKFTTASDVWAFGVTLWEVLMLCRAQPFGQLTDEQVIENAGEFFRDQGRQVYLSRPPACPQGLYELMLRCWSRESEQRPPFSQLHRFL
# Excerpt: (§1) DDR1/2 binding assay: The binding assay relies on the LanthaScreen ™ Eu-Kinase Binding Assay (ThermoFisher Scientfic). This is a kinase assay platform based on measuring the binding and displacement of an Alexa Fluor® conjugate of an ATP-competitive kinase inhibitor or tracer at a kinase active site (Kinase Tracer 178. #PV5593). Binding of the tracer to the kinase is detected by addition of a europium (Eu)-labeled anti-GST antibody (#PV 5594) which specifically labels the kinase of interest. This binding results in a high degree of fluorescence resonance energy transfer (FRET), whereas displacement of the tracer with a kinase inhibitor results in a loss of FRET. The enzymes were purchased as a catalytic domain GST Tag DDR1(#PR6913A) and DDR2 (#PR7167A) from ThermoFisher. Assay conditions were as indicated by the kit manufacturers. Assays were performed in 384-well plates. The final read out was generated using an EnVision plate reader (Perkin-Elmer). The emission ratio was calculated by dividing the acceptor/tracer emission (665 nm) by the antibody/donor emission (615 nm). Values were plotted against the inhibitor concentration and fit to a sigmoid dose-response curve using Activity base by IDBS software.
# DDR2 = target: T2, DDR2 (Homo sapiens, UniProt Q16832); test: LanthaScreen Eu-Kinase Binding Assay (TR-FRET tracer displacement), DDR2; settings: catalytic domain GST Tag DDR2; Kinase Tracer 178
# T2 construct: The enzymes were purchased as a catalytic domain GST Tag DDR1(#PR6913A) and DDR2 (#PR7167A); purchased ThermoFisher PR7167A
# T2 sequence (Q16832 563-849 limits assumed): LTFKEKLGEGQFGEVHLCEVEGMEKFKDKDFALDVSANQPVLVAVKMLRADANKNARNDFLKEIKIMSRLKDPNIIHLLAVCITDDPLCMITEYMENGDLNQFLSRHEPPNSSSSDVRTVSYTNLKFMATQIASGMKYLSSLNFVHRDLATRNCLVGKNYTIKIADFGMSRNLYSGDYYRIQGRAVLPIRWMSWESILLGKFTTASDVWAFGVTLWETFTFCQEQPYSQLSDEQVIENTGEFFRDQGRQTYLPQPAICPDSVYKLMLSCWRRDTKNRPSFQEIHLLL
# Excerpt: as §1
# DDR1 [2] = target: T3, DDR1 (Mus musculus, UniProt Q03146); test: Cellular assay: inhibition of Collagen I-induced DDR1 autophosphorylation in HEK293T cells transiently transfected with DDR1 plasmid (Western blot); type: cell-based, human; settings: pcDNA3.1 DDR1 WT mouse plasmid, compound 1 h, then 10 µg/mL Collagen I 1 h, P-DDR1 (Y513), read-out: pDDR1 EC50
# T3 construct: expressed in transfected cells; host or cells: HEK293T
# T3 sequence (Q03146 20-911): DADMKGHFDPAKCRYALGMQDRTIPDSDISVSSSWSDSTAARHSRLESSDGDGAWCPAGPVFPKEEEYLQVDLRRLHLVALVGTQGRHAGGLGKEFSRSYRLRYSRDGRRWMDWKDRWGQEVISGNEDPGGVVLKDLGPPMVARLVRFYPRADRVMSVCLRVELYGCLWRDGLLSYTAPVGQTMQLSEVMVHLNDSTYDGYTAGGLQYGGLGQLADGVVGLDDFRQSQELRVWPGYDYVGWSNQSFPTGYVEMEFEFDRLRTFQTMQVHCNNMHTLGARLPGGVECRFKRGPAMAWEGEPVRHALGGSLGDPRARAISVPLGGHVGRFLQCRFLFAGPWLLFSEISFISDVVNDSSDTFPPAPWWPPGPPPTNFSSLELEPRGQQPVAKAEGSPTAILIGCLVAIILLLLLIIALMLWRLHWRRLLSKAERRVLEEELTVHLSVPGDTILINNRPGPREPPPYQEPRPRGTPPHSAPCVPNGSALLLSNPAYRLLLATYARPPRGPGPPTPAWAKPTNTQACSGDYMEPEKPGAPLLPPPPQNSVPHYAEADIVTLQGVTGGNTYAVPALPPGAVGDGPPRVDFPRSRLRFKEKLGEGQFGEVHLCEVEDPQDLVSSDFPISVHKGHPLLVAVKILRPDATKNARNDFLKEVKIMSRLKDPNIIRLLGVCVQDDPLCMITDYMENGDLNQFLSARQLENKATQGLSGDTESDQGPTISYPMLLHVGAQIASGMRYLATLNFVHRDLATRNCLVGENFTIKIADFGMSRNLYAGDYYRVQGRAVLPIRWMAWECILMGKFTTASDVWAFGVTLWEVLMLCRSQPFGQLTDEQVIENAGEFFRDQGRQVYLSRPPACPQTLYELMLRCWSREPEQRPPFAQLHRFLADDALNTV
# Procedure: DDR1/2 cellular assay: Transient transfection of HEK293T cells with DDR1 plasmid is used to study the inhibition of the autophosphorylation of DDR1 induced by Collagen I in cells. HEK293T are seeded, 6x10^5 cells per well in 6-well plates and incubated for 6 h at 37 °C, 5% CO2. Then, cells are transfected using Effectene reactive (Quiagen) with pcDNA3.1 DDR1 WT mouse plasmid. Cells are incubated with transfection complexes under normal growth conditions for 24 h. After that, medium is replaced with fresh medium and cells are incubated for an additional 18 h. Eight serial 1:3 compound dilutions are made in DMSO. The compounds are added to each well of 6 well cell plates and are incubated at 37 °C under CO2 atmosphere 1 h. DDR1's autophosphorylation is stimulated by 1h treatment with 10 µg/mL Collagen I. Then, cells are washed in PBS, lyse adding 100 µl of complete RIPA protein lysis buffer (RIPA Buffer, 1 mM DTT, 5 mM Bezamidine, 10 µg/mL Aprotinin, 10 µg/mL Leupeptin, 710 ng/mL Pepstatin A, 100 µg/mL Trypsin Inhibitor, 40 µg/mL Bestatin, completed with PhosSTOP EASYpack and complete Mini, EDTA-free) and incubated 20 minutes at 4 °C and then centrifugated. Lysates are kept at -80 °C. The protein content of the lysates is determined by DC protein assay (Biorad, Ref. 5000116). The proteins are resolved by SDS-PAGE and transferred to nitrocellulose membrane (GE Healthcare #10600003). The membranes are incubated overnight at 4 °C with antibodies specific for DDR1 (D1G6) (Cell signaling #5583), P-DDR1 (Y513) (E1N8F) (Cell Signaling # 14531) they are washed and then incubated with Alexa Fluor 680 goat anti-rabbit IgG secondary antibodies (Invitrogen, A21076). The bands are visualized and quantified using an Odyssey infrared imaging system (Li-Cor Biosciences). The percentage of DDR1 phosphorylation is finally plotted against concentration for each compound and EC50s for intracellular DDR1 inhibition are calculated using ActivityBase from IDBS.
IC50 (DDR1 [1]) [nM],IC50 (DDR2) [nM],EC50 (DDR1 [2]) [nM],Structure (SMILES)
5.3,20.1,30.6,"COc1ccccc1-c1c(-c2ccnc(Nc3cccc(S(N)(=O)=O)c3)n2)sc2nccc(=O)n12 [Compound 46, 3-{4-[3-(2-Methoxy-phenyl)-5-oxo-5H-thiazolo[3,2-a]pyrimidin-2-yl]-pyrimidin-2-ylamino}-benzenesulfonamide]"
9.5,24.4,27.8,"COc1ccccc1-c1c(-c2ccnc(Nc3cccc(N4CCN(CCO)CC4)c3)n2)sc2nccc(=O)n12 [Compound 47, 2-(2-{3-[4-(2-Hydroxy-ethyl)-piperazin-1-yl]-phenylamino}-pyrimidin-4-yl)-3-(2-methoxy-phenyl)-thiazolo[3,2-a]pyrimidin-5-one]"
19.3,71.2,27.5,"COc1ccccc1-c1c(-c2ccnc(Nc3ccc(N4CCN(C)CC4)cc3)n2)sc2nccc(=O)n12 [Compound 48, 3-(2-Methoxy-phenyl)-2-{2-[4-(4-methyl-piperazin-1-yl)-phenylamino]-pyrimidin-4-yl}-thiazolo[3,2-a]pyrimidin-5-one]"
20.9,103,99.8,"COc1cccc(-c2c(-c3ccnc(Nc4cccc(S(N)(=O)=O)c4)n3)sc3nccc(=O)n23)c1 [Compound 49, 3-{4-[3-(3-Methoxy-phenyl)-5-oxo-5H-thiazolo[3,2-a]pyrimidin-2-yl]-pyrimidin-2-ylamino}-benzenesulfonamide]"
21.1,79,33.4,"COc1cccc(-c2c(-c3ccnc(Nc4cccc(N5CCN(CCO)CC5)c4)n3)sc3nccc(=O)n23)c1 [Compound 50, 2-(2-{3-[4-(2-Hydroxy-ethyl)-piperazin-1-yl]-phenylamino}-pyrimidin-4-yl)-3-(3-methoxy-phenyl)-thiazolo[3,2-a]pyrimidin-5-one]"
8.34,27.7,19.2,"COc1cccc(-c2c(-c3ccnc(Nc4ccc(N5CCN(C)CC5)cc4)n3)sc3nccc(=O)n23)c1 [Compound 51, 3-(3-Methoxy-phenyl)-2-{2-[4-(4-methyl-piperazin-1-yl)-phenylamino]-pyrimidin-4-yl}-thiazolo[3,2-a]pyrimidin-5-one]"
10.9,40.6,112,"COc1ccc(-c2c(-c3ccnc(Nc4cccc(S(N)(=O)=O)c4)n3)sc3nccc(=O)n23)cc1 [Compound 52, 3-{4-[3-(4-Methoxy-phenyl)-5-oxo-5H-thiazolo[3,2-a]pyrimidin-2-yl]-pyrimidin-2-ylamino}-benzenesulfonamide]"
5.46,16.8,19.3,"COc1ccc(-c2c(-c3ccnc(Nc4cccc(N5CCN(CCO)CC5)c4)n3)sc3nccc(=O)n23)cc1 [Compound 53, 2-(2-{3-[4-(2-Hydroxy-ethyl)-piperazin-1-yl]-phenylamino}-pyrimidin-4-yl)-3-(4-methoxy-phenyl)-thiazolo[3,2-a]pyrimidin-5-one]"
4.19,28.8,18.2,"COc1ccc(-c2c(-c3ccnc(Nc4ccc(N5CCN(C)CC5)cc4)n3)sc3nccc(=O)n23)cc1 [Compound 54, 3-(4-Methoxy-phenyl)-2-{2-[4-(4-methyl-piperazin-1-yl)-phenylamino]-pyrimidin-4-yl}-thiazolo[3,2-a]pyrimidin-5-one]"
2.28,6.37,21.8,"CN1CCN(c2ccc(Nc3nccc(-c4sc5nccc(=O)n5c4-c4ccccc4O)n3)cc2)CC1 [Compound 55, 3-(2-Hydroxy-phenyl)-2-{2-[4-(4-methyl-piperazin-1-yl)-phenylamino]-pyrimidin-4-yl}-thiazolo[3,2-a]pyrimidin-5-one]"
5.63,17.5,12.2,"CN1CCN(c2ccc(Nc3nccc(-c4sc5nccc(=O)n5c4-c4cccc(O)c4)n3)cc2)CC1 [Compound 56, 3-(3-Hydroxy-phenyl)-2-{2-[4-(4-methyl-piperazin-1-yl)-phenylamino]-pyrimidin-4-yl}-thiazolo[3,2-a]pyrimidin-5-one]"
4.54,15,21.1,"CN1CCN(c2ccc(Nc3nccc(-c4sc5nccc(=O)n5c4-c4ccc(O)cc4)n3)cc2)CC1 [Compound 57, 3-(4-Hydroxy-phenyl)-2-{2-[4-(4-methyl-piperazin-1-yl)-phenylamino]-pyrimidin-4-yl}-thiazolo[3,2-a]pyrimidin-5-one]"
6.4,30.5,28,"O=c1ccnc2sc(-c3ccnc(Nc4cccc(N5CCN(CCO)CC5)c4)n3)c(-c3ccc(F)cc3)n12 [Compound 58, 3-(4-Fluoro-phenyl)-2-(2-{3-[4-(2-hydroxy-ethyl)-piperazin-1-yl]-phenylamino}-pyrimidin-4-yl)-thiazolo[3,2-a]pyrimidin-5-one]"
10.2,47.3,99.3,"NS(=O)(=O)c1cccc(Nc2nccc(-c3sc4nccc(=O)n4c3-c3cccc(Cl)c3Cl)n2)c1 [Compound 59, 3-{4-[3-(2,3-Dichloro-phenyl)-5-oxo-5H-thiazolo[3,2-a]pyrimidin-2-yl]-pyrimidin-2-ylamino}-benzenesulfonamide]"
5.43,18.3,31.9,"O=c1ccnc2sc(-c3ccnc(Nc4cccc(N5CCN(CCO)CC5)c4)n3)c(-c3cccc(Cl)c3Cl)n12 [Compound 60, 3-(2,3-Dichloro-phenyl)-2-(2-{3-[4-(2-hydroxy-ethyl)-piperazin-1-yl]-phenylamino}-pyrimidin-4-yl)-thiazolo[3,2-a]pyrimidin-5-one]"
